Tests used:
EphA2 receptor = EphA2 receptor (Mus musculus, UniProt Q03145); type: binding; conditions: for activity in the binding assay (in words): EphA2-ephrin-A1 ELISA
PC3 cells = test: LDH assay; type: cell-based, human; conditions: 2 h, at the tested concentrations

Sequence of EphA2 receptor (Q03145 26-538 limits assumed): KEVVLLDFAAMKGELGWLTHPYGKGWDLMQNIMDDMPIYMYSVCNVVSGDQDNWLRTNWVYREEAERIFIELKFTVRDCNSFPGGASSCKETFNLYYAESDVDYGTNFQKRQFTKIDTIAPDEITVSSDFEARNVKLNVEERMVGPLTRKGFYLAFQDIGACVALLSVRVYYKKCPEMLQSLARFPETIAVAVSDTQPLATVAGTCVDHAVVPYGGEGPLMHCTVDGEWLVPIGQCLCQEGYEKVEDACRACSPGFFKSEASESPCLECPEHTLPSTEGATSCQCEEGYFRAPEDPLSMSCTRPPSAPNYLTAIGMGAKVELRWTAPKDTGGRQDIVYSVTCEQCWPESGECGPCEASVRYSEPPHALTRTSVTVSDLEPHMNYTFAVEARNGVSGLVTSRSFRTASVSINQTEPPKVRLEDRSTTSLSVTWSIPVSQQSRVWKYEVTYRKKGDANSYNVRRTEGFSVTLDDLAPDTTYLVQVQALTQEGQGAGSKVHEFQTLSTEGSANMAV

| Compound | IC50 (EphA2 receptor) | activity in the binding assay (in words) (EphA2 receptor) | other results |
| --- | --- | --- | --- |
| C[C@H](CCC(=O)NCC(=O)O)[C@H]1CC[C@H]2[C@@H]3CC[C@@H]4C[C@H](O)CC[C@]4(C)[C@H]3CC[C@]12C [Compound 2, glycolithocholic acid] |  |  | reversibility of binding (EphA2 receptor; 100 μM compound for 1 hour, with or without washing before 50 ng/mL ephrin-A1-Fc): reversible binder; nature of the antagonism (EphA2 receptor; from Schild plot): competitive binding |
| CC(=O)CNC(=O)CC[C@@H](C)[C@H]1CC[C@H]2[C@@H]3CC[C@@H]4C[C@H](O)CC[C@]4(C)[C@H]3CC[C@]12C [Compound 3] | > 316 µM | inactive |  |
| C[C@H](CCC(=O)N[C@@H](CC(N)=O)C(=O)O)[C@H]1CC[C@H]2[C@@H]3CC[C@@H]4C[C@H](O)CC[C@]4(C)[C@H]3CC[C@]12C [Compound 10] | > 316 µM |  |  |
| C[C@H](CCC(=O)N[C@H](CC(N)=O)C(=O)O)[C@H]1CC[C@H]2[C@@H]3CC[C@@H]4C[C@H](O)CC[C@]4(C)[C@H]3CC[C@]12C [Compound 11] | > 316 µM |  |  |
| C[C@H](CCC(=O)N[C@@H](CC(=O)O)C(=O)O)[C@H]1CC[C@H]2[C@@H]3CC[C@@H]4C[C@H](O)CC[C@]4(C)[C@H]3CC[C@]12C [Compound 12] | > 316 µM | inactive |  |
| C[C@H](CCC(=O)N[C@H](CC(=O)O)C(=O)O)[C@H]1CC[C@H]2[C@@H]3CC[C@@H]4C[C@H](O)CC[C@]4(C)[C@H]3CC[C@]12C [Compound 13] | > 316 µM | inactive |  |
| C[C@H](CCC(=O)N[C@@H](Cc1c[nH]c2ccccc12)C(=O)O)[C@H]1CC[C@H]2[C@@H]3CC[C@@H]4C[C@H](O)CC[C@]4(C)[C@H]3CC[C@]12C [Compound 20] |  |  | cytotoxic effect (LDH assay) (PC3 cells): nor had cytotoxic effect |

Source: paper PMC3953198 (Journal of medicinal chemistry, 2013)
